Measurements taken from US10398713B2, “Compositions and methods for the treatment of neurodegenerative and other diseases” (Glialogix, Inc., priority 2013, dated 2019).
Blank lines part the entries; values can stand above or below the compound they belong to.

How the values were obtained:
[1] = label / literature; cited from earlier work
SOD1 mouse model = settings: cited from earlier work
[2] = for Cmax GB: 4.5 mg, pH 2; for AUC / Cmax IB: pH 5.5
in vivo = settings: male, Sprague-Dawley, rat, 400 mg/kg
Experimental: Rats were allowed to eat ad libitum before testing. […] Following drug administration, 200 μl of plasma was collected from each animal at the following time points: 30, 60, 90, 120, 160 and 240 minutes. Plasma samples were snap frozen in liquid N2 and stored at −80° C. until analysis.

[3] = SOD1 mouse model, published results (Shin et al. 2012; Lincecum et al. 2010)

Compound: Nc1ccc(S(=O)(=O)Nc2ccccn2)cc1 [Sulfapyridine, sulfapyridine]
- bioavailability (share reaching the circulation following oral dosing) [1]: > 70%

Compound: Nc1nc2ccc(OC(F)(F)F)cc2s1 [riluzole]
- increased absolute lifespan (SOD1 mouse model; SOD1 model, Lincecum et al. 2010): 1.6%
- increased lifespan after onset of neurological disease (SOD1 mouse model; [3]): 1%

- Cmax GB [2]: 154000 ng/mL
- AUC [2]: 30,300 min * ug/mL
- Cmax IB [2]: 372000 ng/mL
Compound: O=C(O)c1cc(N=Nc2ccc(S(=O)(=O)Nc3ccccn3)cc2)ccc1O [Amorphous sulfasalazine, sulfasalazine]

- Cmax GB [2]: 15000 ng/mL
- AUC [2]: 22,200 min * ug/mL
- Cmax IB [2]: 282000 ng/mL
- concentration at 0.5 h (in vivo): 1490 ng/mL
- concentration at 1 h (in vivo): 1140 ng/mL
- concentration at 1.5 h (in vivo): 1430 ng/mL
- concentration at 2 h (in vivo): 1260 ng/mL
- concentration at 3 h (in vivo): 1030 ng/mL
- concentration at 4 h (in vivo): 850 ng/mL
Compound: O=C(O)c1cc(N=Nc2ccc(S(=O)(=O)Nc3ccccn3)cc2)ccc1O [Crystalline sulfasalazine, sulfasalazine]

Compound: CC(C)Cc1ccc(C(C)C(=O)O)cc1 (stereo not shown) [ibuprofen]
- decreased lifespan after onset of neurological disease (SOD1 mouse model; [3]): 10%
